Test results as given in patent publication US11415493B2, “Detection of cells in a liquid sample” (DELTA INSTRUMENTS B.V., priority 2016, dated 2022).
Entries after “also recorded” stand apart in the source; their conditions may differ.

Assays:
Format in all cases: cell-based, Escherichia coli
E. coli in raw milk = assay: GelGreen raw milk treatment staining protocol, flow cytometry; conditions: raw milk diluted in Tris-buffered saline pH 8.5, approximately 50 to 60° C.
Experimental: To show how the FL1, FL2 signals look like in un-spiked raw milk, low bacterial count raw milk was analyzed. The locally obtained raw milk (generally from a farm) has a very low bacteria count ranging from 1000 to 50,000 CFU per mL. The staining composition comprising GelGreen™ as the nucleic acid dye was prepared in the same way as in Example 1, except that the protease Savinase® 16L (from Novozymes) was added in an amount of 1.92×10^3 NPU/ml, where NPU is “Novo Protease Unit which is the same as Anson unit (AU). […] The sample with the staining composition was incubated at approximately 50° C. for approximately 4 to 5 min; the sample was again sonicated for approximately 5 seconds and finally the sample was analyzed on the flow cytometer and the fluorescent signals from the bacteria were detected and a count per unit volume was determined.
A small volume of raw milk was processed and analyzed following this GelGreen™ raw milk treatment staining method protocol (FIG. 38). To show the FL1 and FL2 signals for spiked raw milk, a known number of E. coli were placed into a known volume of the same raw milk and kept at 4° C. until treated, stained and analyzed on the flow cytometer. The raw milk with E. coli was processed and analyzed using the same GelGreen™ raw milk treatment staining method protocol. […]

E. coli [1] = assay: Staining E. coli culture with different nucleic acid dyes, flow cytometer counts (FL1FL2 region)
Experimental: First, an experiment was performed to confirm that bacterial counts obtained on the flow cytometer using GelGreen™ did correlate with traditional plate counts. For this, the Petrifilm method was selected (Standard Methods for Examination of Dairy Products 17th Edition 2004. Edited by H. M. Wehr and J. R. Frank. American Public Health Association, 800 I Street, NW, Washington D.C. 200001. Chapter 6.040), rather than a poured agar plate method, because of ease of use. Escherichia coil (E. coli) cultures were grown at 36° C. in Trypticase Soy Broth (TSB) in a culture tube. A staining composition was prepared as follows: The nucleic acid dye GelGreen™ (from Biotium) was diluted to 1× from the 10,000× commercially available stock, into Tris-buffered saline (100 mM Trizma base, 100 mM Trizma HCl, 150 mM NaCl, pH 8.5), which was preheated to 50° C. The used dilution of 1:10,000 of the GelGreen™ is in accordance with the manufacturer's recommendation for using GelGreen™ for the purpose it was intended for, namely staining DNA in an agarose gel. This is the dilution of GelGreen™ used in all the examples herein. The E. coli culture was removed from the 36° C. incubator and a small volume was diluted 1:100 into the preheated staining composition and incubated for approximately 4.5 min at 50° C. The stained E. coli was analyzed on the flow cytometer and the FL1 (Bandpass 531 nm (519-551)) and FL2 (Long pass >550 nm) fluorescence channels were used to identify the stained bacteria (FIGS. 1A and 1C). A rectangular region was defined around the positively stained cells identified as live cells in the FL1 versus FL2 2-dimensional correlation plot (FIG. 1B). A count per mL of the E. coli was obtained from the flow cytometry analysis. The E. coli culture was then diluted in TSB to obtain 3 different concentrations (1:10, 1:100 and 1:1000, respectively). The E. coli cultures were kept at 4° C. to minimize further growth until analysis. Each dilution of E. coli was stained with the GelGreen™ reagent, analyzed on the flow cytometer and counts for each dilution were obtained. Each E. coli culture was also appropriately diluted in Butterfield's PBS and 1 mL of the appropriately diluted culture was plated on Petrifilms in duplicate. The Petrifilms were placed in a 30° C. incubator, removed after 48 hrs and the colonies on each Petrifilm were counted using an automated colony counter. An average CFU/mL for each E. coli dilution was obtained. The Log of the flow cytometer bacterial counts using GelGreen™ was plotted versus the Log CFU counts from the Petrifilm (FIG. 2).
To show where the bacteria in the FL1 and FL2 signal plots can be expected, bacteria were first counted in the staining composition without adding any milk. A culture of E. coli were grown at 36° C. in Trypticase Soy Broth (TSB) in a culture tube. The nucleic acid dye GelGreen™ was diluted into Tris-buffered saline, at approximately pH 8.5, which was preheated to 50° C. The E. coli culture was removed from the 36° C. incubator and a small volume was diluted 1:100 into the preheated staining composition and incubated for approximately 4.5 min at 50° C. The stained E. coli was analyzed on the flow cytometer and the FL1 and FL2 fluorescence channels were used to identify the stained bacteria (FIG. 3A).
A culture of E. coli was grown at 36° C. in Trypticase Soy Broth (TSB), stained with GelGreen™ and counted on the flow cytometer (FIG. 5) as described in example 2. The E. coli culture was then kept at 4° C. until stained with other nucleic acid dyes. The nucleic acid dyes TOTO®-1 and SYBR® Safe (both from Thermo Fisher Scientific) were selected as alternatives. […] Both dyes have similar spectral properties to GelGreen™ and were diluted in Tris-buffered saline using the same dilution factor as GelGreen™. […]

E. coli [2] = assay: Validation of flow cytometer bacterial counts versus Petrifilm CFU counts, E. coli cultures; conditions: Tris-buffered saline pH 8.5, 50° C.
Experimental: First, an experiment was performed to confirm that bacterial counts obtained on the flow cytometer using GelGreen™ did correlate with traditional plate counts. For this, the Petrifilm method was selected (Standard Methods for Examination of Dairy Products 17th Edition 2004. Edited by H. M. Wehr and J. R. Frank. American Public Health Association, 800 I Street, NW, Washington D.C. 200001. Chapter 6.040), rather than a poured agar plate method, because of ease of use. Escherichia coil (E. coli) cultures were grown at 36° C. in Trypticase Soy Broth (TSB) in a culture tube. A staining composition was prepared as follows: The nucleic acid dye GelGreen™ (from Biotium) was diluted to 1× from the 10,000× commercially available stock, into Tris-buffered saline (100 mM Trizma base, 100 mM Trizma HCl, 150 mM NaCl, pH 8.5), which was preheated to 50° C. […] The stained E. coli was analyzed on the flow cytometer and the FL1 (Bandpass 531 nm (519-551)) and FL2 (Long pass >550 nm) fluorescence channels were used to identify the stained bacteria (FIGS. 1A and 1C). […] Each dilution of E. coli was stained with the GelGreen™ reagent, analyzed on the flow cytometer and counts for each dilution were obtained. […] The Petrifilms were placed in a 30° C. incubator, removed after 48 hrs and the colonies on each Petrifilm were counted using an automated colony counter. […]

SMILES: CN(C)c1ccc2cc3ccc(N(C)C)cc3[n+](CCCCCC(=O)NCCCOCCOCCOCCCNC(=O)CCCCC[n+]3c4cc(N(C)C)ccc4cc4ccc(N(C)C)cc43)c2c1.[I-].[I-] [GelGreen™]
- staining of bacterial cells in raw milk (E. coli in raw milk): clear population of E. coli was identified; also recorded: bacterial cells being stained
- staining of E. coli (E. coli [1]; NaCl solution (saline), 50° C.): minimal staining
- staining of E. coli (E. coli [1]; NaCl solution (saline), room temperature (23° C.)): does not stain E. coli; also recorded: did not stain bacterial cells
- staining of E. coli (E. coli [1]; Tris-buffered saline pH 8.5, 50° C., approximately 4.5 min): stains essentially all bacterial cells
- staining of E. coli (E. coli [1]; Tris-buffered saline pH 8.5, room temperature (23° C.)): does not stain E. coli; also recorded: did not stain bacterial cells
- relationship of Log flow cytometer bacterial counts versus Log CFU counts from Petrifilm (E. coli [2]): clear linear relationship
